From US20240417405A1, “Substituted Spiro Derivatives” (Janssen Pharmaceutica NV, priority 2021, published 2024)

Assays:
[1] = biological target: T1, menin/MLL (terbium chelate-labeled menin, FITC-MBM1 peptide) (Homo sapiens, UniProt O00255, T541A); assay: Menin/MLL homogenous time-resolved fluorescence (HTRF) assay; format: binding; conditions: 30 min incubation
T1 construct: Menin (a.a 1-610-6xhis tag)
T1 sequence (O00255 with tags, fused parts or gaps T541A): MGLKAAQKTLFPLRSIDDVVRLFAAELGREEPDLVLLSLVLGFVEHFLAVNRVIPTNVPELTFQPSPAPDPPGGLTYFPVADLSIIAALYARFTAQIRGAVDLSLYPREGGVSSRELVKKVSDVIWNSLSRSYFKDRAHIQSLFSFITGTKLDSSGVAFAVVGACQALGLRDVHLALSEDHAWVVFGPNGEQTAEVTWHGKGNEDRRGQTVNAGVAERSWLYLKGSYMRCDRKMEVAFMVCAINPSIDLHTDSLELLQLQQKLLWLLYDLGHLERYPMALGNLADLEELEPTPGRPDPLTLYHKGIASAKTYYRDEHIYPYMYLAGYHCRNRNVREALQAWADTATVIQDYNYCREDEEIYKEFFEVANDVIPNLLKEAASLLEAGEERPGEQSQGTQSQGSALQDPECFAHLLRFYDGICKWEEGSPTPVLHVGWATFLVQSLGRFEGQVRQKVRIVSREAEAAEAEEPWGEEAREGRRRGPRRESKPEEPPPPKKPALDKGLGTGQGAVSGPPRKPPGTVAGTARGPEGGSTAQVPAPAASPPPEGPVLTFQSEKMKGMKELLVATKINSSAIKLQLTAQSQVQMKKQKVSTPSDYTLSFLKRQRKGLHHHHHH
Procedure, shortened: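 Terbium-labeled menin (aa 1-610, His-tagged; 200 pM) preincubated 30 min with compound, then 75 nM FITC-MBM1 peptide added for 15 min at ambient temperature in pH 7.5 Tris buffer, 0.5% DMSO. HTRF ratio 520/490 nm converted to % inhibition. IC50 came from an 11-point four-fold titration from 10 μM, floor 0.1 nM.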

KO-52 cells = assay: Proliferation assay, spheroid-like growth, KO-52 (MLL wildtype control cell line); format: cell-based, human; conditions: Homo sapiens, 192 h, KO-52 control cells, 8 days, confluence as measure of spheroid size; read-out: spheroid assay_OneTime KO-52 IC50
Procedure, shortened: (§1)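 Cells seeded in ultra-low attachment round-bottom wells (200 MOLM14 or 300 KO-52 per well) with compound at several concentrations, DMSO 0.3%, grown 8 days at 37° C, 5% CO2. Spheroid size taken as confluence from day-8 live-cell images; IC50 from variable-slope fit, DMSO as 0% and high-dose reference compound as 100% effect.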

MOLM14 cells = assay: Proliferation assay, spheroid-like growth, MOLM14 (MLL-AF9 rearranged); format: cell-based, human; conditions: Homo sapiens, MOLM-14, 192 h, 8 days, confluence as measure of spheroid size, read-out: spheroid assay_OneTime MOLM14 IC50
Procedure, shortened: as §1

| SMILES | IC50 [1] [nM] | IC50 (MOLM14 cells) [nM] | IC50 (KO-52 cells) [nM] |
| --- | --- | --- | --- |
| CC(C)[C@H]([C@H]1C[C@@H](N(C)CCCS(C)(=O)=O)C1)N1CC2(CCN(c3ncnnc3Oc3ccc(F)cc3-c3cncnc3C3CC3)C2)C1 (single isomer, unassigned) [Compound 242] | 0.1 | 8 | 12200 |
| CC(C)[C@@H]([C@H]1C[C@@H](N2CCCCC2)C1)N1CC2(CCN(c3ncnnc3Oc3ccc(F)cc3-c3nnccc3C3CC3)C2)C1 (single isomer, unassigned) [Compound 250] | 0.1 | 8 | 940 |
| CC(C)[C@@H]([C@H]1C[C@@H](N2CCC3(CCO3)CC2)C1)N1CC2(CCN(c3ncnnc3Oc3ccc(F)cc3-c3nnccc3C3CC3)C2)C1 (single isomer, unassigned) [Compound 251] | 0.2 | 7 | 1240 |
| CC(C)[C@H]([C@H]1C[C@@H](N2CCC3(CCO3)CC2)C1)N1CC2(CCN(c3ncnnc3Oc3ccc(F)cc3-c3nnccc3C3CC3)C2)C1 (single isomer, unassigned) [Compound 252] | 12.7 | 270 | > 15000 |
| CC(C)[C@@H]([C@H]1C[C@@H](N2CCC3(CC2)COC3)C1)N1CC2(CCN(c3ncnnc3Oc3ccc(F)cc3-c3nnccc3C3CC3)C2)C1 (single isomer, unassigned) [Compound 253] | 0.1 | 10 | 1620 |
| CC(C)[C@@H]([C@H]1C[C@@H](N2CCC3(COC3)C2)C1)N1CC2(CCN(c3ncnnc3Oc3ccc(F)cc3-c3nnccc3C3CC3)C2)C1 (single isomer, unassigned) [Compound 254] | 0.1 | 16 | > 15000 |
| CC(C)[C@H]([C@H]1C[C@@H](N2CCC3(COC3)C2)C1)N1CC2(CCN(c3ncnnc3Oc3ccc(F)cc3-c3nnccc3C3CC3)C2)C1 (single isomer, unassigned) [Compound 255] | 4.7 | 920 | > 15000 |
| CO[C@H]1CCCN([C@H]2C[C@@H]([C@H](C(C)C)N3CC4(CCN(c5ncnnc5Oc5ccc(F)cc5-c5nnccc5C5CC5)C4)C3)C2)C1 (single isomer, unassigned) [Compound 256] | 0.2 | 5 | > 15000 |
| CO[C@@H]1CCN([C@H]2C[C@@H]([C@H](C(C)C)N3CC4(CCN(c5ncnnc5Oc5ccc(F)cc5-c5nnccc5C5CC5)C4)C3)C2)C1 (single isomer, unassigned) [Compound 257] | 0.1 | 6 | > 15000 |
| CC(C)[C@@H]([C@H]1C[C@@H](N2C[C@H]3COC[C@H]3C2)C1)N1CC2(CCN(c3ncnnc3Oc3ccc(F)cc3-c3nnccc3C3CC3)C2)C1 (single isomer, unassigned) [Compound 258] | 0.1 | 4 | 490 |
| CC(C)[C@@H]([C@H]1C[C@H](N2C[C@H]3COC[C@H]3C2)C1)N1CC2(CCN(c3ncnnc3Oc3ccc(F)cc3-c3nnccc3C3CC3)C2)C1 (single isomer, unassigned) [Compound 259] | 0.4 | 94 | 4760 |
| COC1CN([C@H]2C[C@@H]([C@H](C(C)C)N3CC4(CCN(c5ncnnc5Oc5ccc(F)cc5-c5nnccc5C5CC5)C4)C3)C2)C1 (single isomer, unassigned) [Compound 260] | 0.1 | 6 | 3250 |
| CC(C)[C@@H]([C@H]1C[C@@H](N(C)C)C1)N1CC2(CCN(c3ncnnc3Oc3ccc(F)cc3-c3nnccc3C3CC3)C2)C1 (single isomer, unassigned) [Compound 261a] | 0.16 | 19 | > 15000 |
| CC(C)[C@@H]([C@H]1C[C@H](N(C)C)C1)N1CC2(CCN(c3ncnnc3Oc3ccc(F)cc3-c3nnccc3C3CC3)C2)C1 (single isomer, unassigned) [Compound 261b] | 0.3 | 83 | 3070 |
| CC(C)[C@@H]([C@H]1C[C@@H](N2CC[C@@H](F)C2)C1)N1CC2(CCN(c3ncnnc3Oc3ccc(F)cc3-c3nnccc3C3CC3)C2)C1 (single isomer, unassigned) [Compound 262] | 0.1 | 5 | 1280 |
| COC1(C)CN([C@H]2C[C@H]([C@H](C(C)C)N3CC4(CCN(c5ncnnc5Oc5ccc(F)cc5-c5nnccc5C5CC5)C4)C3)C2)C1 (single isomer, unassigned) [Compound 264] | 0.8 | 170 | 14400 |
| CC(C)[C@H]([C@H]1C[C@@H](N2CCC3(CCCO3)C2)C1)N1CC2(CCN(c3ncnnc3Oc3ccc(F)cc3-c3nnccc3C3CC3)C2)C1 (single isomer, unassigned) [Compound 271] | 2.4 | 260 | > 15000 |
| CC(C)[C@@H]([C@H]1C[C@H](NC2CC2)C1)N1CC2(CCN(c3ncnnc3Oc3ccc(F)cc3-c3nnccc3C3CC3)C2)C1 (single isomer, unassigned) [Compound 273] | 0.3 | 110 | > 15000 |

Continued, in another order:

| IC50 [1] [nM] | IC50 (MOLM14 cells) [nM] | SMILES | IC50 (KO-52 cells) [nM] |
| --- | --- | --- | --- |
| 0.1 | 7 | CC(C)[C@H]([C@H]1C[C@@H](N2CCC3(CCO3)CC2)C1)N1CC2(CCN(c3ncnnc3Oc3ccc(F)cc3-c3cncnc3C3CC3)C2)C1 (single isomer, unassigned) [Compound 232] | 1800 |
| 0.1 | 2 | CO[C@H]1[C@@H]2CN([C@H]3C[C@@H]([C@@H](C(C)C)N4CC5(CCN(c6ncnnc6Oc6ccc(F)cc6-c6cncnc6C6CC6)C5)C4)C3)C[C@@H]21 (single isomer, unassigned) [Compound 233] | 840 |
| 0.1 | 9 | CC(C)[C@H]([C@H]1C[C@@H](N2C[C@H]3C[C@@H]2CO3)C1)N1CC2(CCN(c3ncnnc3Oc3ccc(F)cc3-c3cncnc3C3CC3)C2)C1 (single isomer, unassigned) [Compound 234] | 6280 |
| 0.2 | 4 | COC1CN([C@H]2C[C@@H]([C@@H](C(C)C)N3CC4(CCN(c5ncnnc5Oc5ccc(F)cc5-c5cncnc5C5CC5)C4)C3)C2)CC1OC (single isomer, unassigned) [Compound 236] | 2250 |
| 0.2 | 36 | COC1CN([C@H]2C[C@H]([C@@H](C(C)C)N3CC4(CCN(c5ncnnc5Oc5ccc(F)cc5-c5cncnc5C5CC5)C4)C3)C2)CC1OC (single isomer, unassigned) [Compound 237] | 7900 |
| 0.1 | 2 | CC(C)[C@H]([C@H]1C[C@@H](N2CC[C@H](F)C2)C1)N1CC2(CCN(c3ncnnc3Oc3ccc(F)cc3-c3cncnc3C3CC3)C2)C1 (single isomer, unassigned) [Compound 238] | 7170 |
| 0.3 | 16 | CC(C)[C@H]([C@H]1C[C@H](N2CC[C@H](F)C2)C1)N1CC2(CCN(c3ncnnc3Oc3ccc(F)cc3-c3cncnc3C3CC3)C2)C1 (single isomer, unassigned) [Compound 239] | 2810 |
| 2.5 | 580 | CC(C)[C@H]([C@H]1C[C@@H](N2CC(C(=O)N(C)C)C2)C1)N1CC2(CCN(c3ncnnc3Oc3ccc(F)cc3-c3cncnc3C3CC3)C2)C1 (single isomer, unassigned) [Compound 243] | > 15000 |
| 0.6 | 460 | CC(C)[C@@H]([C@H]1C[C@H](N2C[C@H]3COC[C@H]3C2)C1)N1CC2(CCN(c3ncnnc3Oc3ccc(F)cc3-c3cncnc3C3CC3)C2)C1 (single isomer, unassigned) [Compound 245] | 8940 |
| 0.1 | 4 | CC(C)[C@H]([C@H]1C[C@@H](N2C[C@@H]3[C@H](C2)[C@H]3C(=O)N(C)C)C1)N1CC2(CCN(c3ncnnc3Oc3ccc(F)cc3-c3cncnc3C3CC3)C2)C1 (single isomer, unassigned) [Compound 248] | 1460 |
